# From ChEMBL document CHEMBL4190267, “Discovery of potent molecular chimera (CM358) to treat human metastatic melanoma” (Eur J Med Chem, 2017)
# Calls of active or inactive are those of the source. No cut-off for these calls is given here.
# Experiments:
# WM 266-4 [1] = test: Induction of apoptosis in human WM266.4 cells assessed as late apoptotic cells at 25 uM after 8 hrs by Annexin V-FITC/propidium iodide staining based flow cytometry (reference value: 1.41%); type: functional
# Mus musculus [2] = test: Toxicity in athymic Foxn1 nu mouse assessed as abnormal physiological changes at 10 mg/kg, ip administered once daily for 3 days followed by resting period of 4 days repeated for 4 weeks; type: organism-based; conditions: in vivo
# MDA-MB-231 = test: Growth inhibition of human MDA-MB-231 cells preincubated for 6 hrs followed compound washout measured after 24 hrs by XTT assay; type: functional
# WM 266-4 [3] = test: Induction of apoptosis in human WM266.4 cells assessed as live cells at 10 uM after 24 hrs by Annexin V-FITC/propidium iodide staining based flow cytometry (reference value: 94.7%); type: functional
# WM 266-4 [4] = test: Induction of necrosis in human WM266.4 cells at 5 to 25 uM after 16 hrs by Annexin V-FITC/propidium iodide staining based fluorescence microscopic method; type: functional, cell-based
# WM 266-4 [5] = test: (§1) Antitumor activity against human WM266.4 cells xenografted in athymic Foxn1 nu mouse assessed as tumor growth inhibition at 10 mg/kg, ip administered once daily for 3 days followed by resting period of 4 days repeated for 4 weeks starting from 5 days post tumor inoculation measured on day 19; type: functional, organism-based
# WM 266-4 [6] = test: as §1, with “25” for “10”, “21 relative to control” for “19”; type: functional; conditions: WM 266-4, ip, read-out: TGI
# WM 266-4 [7] = test: Induction of apoptosis in human WM266.4 cells assessed as early apoptotic cells at 10 uM after 24 hrs by Annexin V-FITC/propidium iodide staining based flow cytometry (reference value: 2.64%); type: functional
# WM 266-4 [8] = test: Cell cycle arrest in human WM266.4 cells assessed as accumulation at S phase at 10 uM after 24 hrs by propidium iodide staining based flow cytometry (reference value: 27%); type: functional
# WM 266-4 [9] = test: as §1, with “21 relative to control” for “19”; type: functional; conditions: WM 266-4, ip, read-out: TGI
# WM 266-4 [10] = test: Induction of apoptosis in human WM266.4 cells assessed as necrotic cells at 10 uM after 8 hrs by Annexin V-FITC/propidium iodide staining based flow cytometry (reference value: 1.22%); type: functional
# WM 266-4 [11] = test: Induction of apoptosis in human WM266.4 cells assessed as early apoptotic cells at 25 uM after 24 hrs by Annexin V-FITC/propidium iodide staining based flow cytometry (reference value: 2.64%); type: functional
# WM 266-4 [12] = test: Induction of apoptosis in human WM266.4 cells assessed as live cells at 25 uM after 2 hrs by Annexin V-FITC/propidium iodide staining based flow cytometry (reference value: 94.7%); type: functional
# WM 266-4 [13] = test: Growth inhibition of human WM266.4 cells at 5 uM incubated up to 72 hrs by XTT assay relative to control; type: functional; conditions: WM 266-4, 72 h, read-out: GI
# PC-3 = test: Growth inhibition of human PC3 cells preincubated for 6 hrs followed compound washout measured after 24 hrs by XTT assay; type: functional
# WM 266-4 [14] = test: Cell cycle arrest in human WM266.4 cells assessed as accumulation at G1 phase at 10 uM after 24 hrs by propidium iodide staining based flow cytometry (reference value: 59%); type: functional
# WM 266-4 [15] = test: Induction of apoptosis in human WM266.4 cells assessed as necrotic cells at 25 uM after 24 hrs by Annexin V-FITC/propidium iodide staining based flow cytometry (reference value: 1.22%); type: functional
# WM 266-4 [16] = test: Induction of necrosis in human WM266.4 cells at 25 uM after 2 to 6 hrs by Annexin V-FITC/propidium iodide staining based fluorescence microscopic method; type: functional, cell-based
# WM 266-4 [17] = test: Induction of apoptosis in human WM266.4 cells assessed as early apoptotic cells at 25 uM after 8 hrs by Annexin V-FITC/propidium iodide staining based flow cytometry (reference value: 2.64%); type: functional
# WM 266-4 [18] = test: Cell cycle arrest in human WM266.4 cells assessed as accumulation at S phase at 10 uM after 8 hrs by propidium iodide staining based flow cytometry (reference value: 27%); type: functional
# WM 266-4 [19] = test: Induction of apoptosis in human WM266.4 cells assessed as necrotic cells at 10 uM after 2 hrs by Annexin V-FITC/propidium iodide staining based flow cytometry (reference value: 1.22%); type: functional
# WM 266-4 [20] = test: Antitumor activity against human WM266.4 cells xenografted in athymic Foxn1 nu mouse assessed as increase in 50% survival of mouse at 10 mg/kg, ip administered once daily for 7 days followed by resting period of 2 days repeated for 4 weeks starting from 5 days post tumor inoculation relative to control; type: functional
# WM 266-4 [21] = test: Cell cycle arrest in human WM266.4 cells assessed as accumulation at G2 phase at 10 uM after 2 hrs by propidium iodide staining based flow cytometry (reference value: 11%); type: functional
# Mus musculus [22] = test: Toxicity in athymic Foxn1 nu mouse assessed as effect on body weight at 10 mg/kg, ip administered once daily for 3 days followed by resting period of 4 days repeated for 4 weeks; type: organism-based; conditions: in vivo
# WM 266-4 [23] = test: Cell cycle arrest in human WM266.4 cells assessed as accumulation at S phase at 10 uM after 2 hrs by propidium iodide staining based flow cytometry (reference value: 27%); type: functional
# WM 266-4 [24] = test: Cell cycle arrest in human WM266.4 cells assessed as accumulation at G2 phase at 10 uM after 24 hrs by propidium iodide staining based flow cytometry (reference value: 11%); type: functional
# WM 266-4 [25] = test: Cell cycle arrest in human WM266.4 cells assessed as accumulation at G1 phase at 10 uM after 8 hrs by propidium iodide staining based flow cytometry (reference value: 59%); type: functional
# WM 266-4 [26] = test: Induction of apoptosis in human WM266.4 cells assessed as late apoptotic cells at 25 uM after 24 hrs by Annexin V-FITC/propidium iodide staining based flow cytometry (reference value: 1.41%); type: functional
# WM 266-4 [27] = test: Antitumor activity against human WM266.4 cells xenografted in athymic Foxn1 nu mouse assessed as mouse survival at 10 mg/kg, ip administered once daily for 3 days followed by resting period of 4 days repeated for 4 weeks starting from 5 days post tumor inoculation relative to control; type: functional; conditions: WM 266-4, ip
# [28] = Drug metabolism in human WM266.4 cells assessed as chlorambucil after 48 hrs by LC-MS analysis; type: ADME, cell-based; conditions: wm 266-4, 48 h
# WM 266-4 [29] = test: Induction of apoptosis in human WM266.4 cells assessed as late apoptotic cells at 25 uM after 2 hrs by Annexin V-FITC/propidium iodide staining based flow cytometry (reference value: 1.41%); type: functional
# WM 266-4 [30] = test: Cell cycle arrest in human WM266.4 cells assessed as accumulation at G1 phase at 10 uM after 2 hrs by propidium iodide staining based flow cytometry (reference value: 59%); type: functional
# [31] = Drug metabolism in human WM266.4 cells assessed as amonafide after 48 hrs by LC-MS analysis; type: ADME, cell-based; conditions: wm 266-4, 48 h
# [32] = target: DNA topoisomerase 2-alpha (Homo sapiens) (UniProt P11388); test: Inhibition of human topoisomerase-2alpha assessed as reduction in enzyme-mediated decatenation at 100 uM using kinetoplast DNA as substrate after 25 mins by ethidium bromide staining based agarose gel electrophoresis method
# WM 266-4 [33] = test: Induction of apoptosis in human WM266.4 cells assessed as necrotic cells at 10 uM after 24 hrs by Annexin V-FITC/propidium iodide staining based flow cytometry (reference value: 1.22%); type: functional
# DNA topoisomerase 2-alpha (Homo sapiens), sequence (P11388 whole entry): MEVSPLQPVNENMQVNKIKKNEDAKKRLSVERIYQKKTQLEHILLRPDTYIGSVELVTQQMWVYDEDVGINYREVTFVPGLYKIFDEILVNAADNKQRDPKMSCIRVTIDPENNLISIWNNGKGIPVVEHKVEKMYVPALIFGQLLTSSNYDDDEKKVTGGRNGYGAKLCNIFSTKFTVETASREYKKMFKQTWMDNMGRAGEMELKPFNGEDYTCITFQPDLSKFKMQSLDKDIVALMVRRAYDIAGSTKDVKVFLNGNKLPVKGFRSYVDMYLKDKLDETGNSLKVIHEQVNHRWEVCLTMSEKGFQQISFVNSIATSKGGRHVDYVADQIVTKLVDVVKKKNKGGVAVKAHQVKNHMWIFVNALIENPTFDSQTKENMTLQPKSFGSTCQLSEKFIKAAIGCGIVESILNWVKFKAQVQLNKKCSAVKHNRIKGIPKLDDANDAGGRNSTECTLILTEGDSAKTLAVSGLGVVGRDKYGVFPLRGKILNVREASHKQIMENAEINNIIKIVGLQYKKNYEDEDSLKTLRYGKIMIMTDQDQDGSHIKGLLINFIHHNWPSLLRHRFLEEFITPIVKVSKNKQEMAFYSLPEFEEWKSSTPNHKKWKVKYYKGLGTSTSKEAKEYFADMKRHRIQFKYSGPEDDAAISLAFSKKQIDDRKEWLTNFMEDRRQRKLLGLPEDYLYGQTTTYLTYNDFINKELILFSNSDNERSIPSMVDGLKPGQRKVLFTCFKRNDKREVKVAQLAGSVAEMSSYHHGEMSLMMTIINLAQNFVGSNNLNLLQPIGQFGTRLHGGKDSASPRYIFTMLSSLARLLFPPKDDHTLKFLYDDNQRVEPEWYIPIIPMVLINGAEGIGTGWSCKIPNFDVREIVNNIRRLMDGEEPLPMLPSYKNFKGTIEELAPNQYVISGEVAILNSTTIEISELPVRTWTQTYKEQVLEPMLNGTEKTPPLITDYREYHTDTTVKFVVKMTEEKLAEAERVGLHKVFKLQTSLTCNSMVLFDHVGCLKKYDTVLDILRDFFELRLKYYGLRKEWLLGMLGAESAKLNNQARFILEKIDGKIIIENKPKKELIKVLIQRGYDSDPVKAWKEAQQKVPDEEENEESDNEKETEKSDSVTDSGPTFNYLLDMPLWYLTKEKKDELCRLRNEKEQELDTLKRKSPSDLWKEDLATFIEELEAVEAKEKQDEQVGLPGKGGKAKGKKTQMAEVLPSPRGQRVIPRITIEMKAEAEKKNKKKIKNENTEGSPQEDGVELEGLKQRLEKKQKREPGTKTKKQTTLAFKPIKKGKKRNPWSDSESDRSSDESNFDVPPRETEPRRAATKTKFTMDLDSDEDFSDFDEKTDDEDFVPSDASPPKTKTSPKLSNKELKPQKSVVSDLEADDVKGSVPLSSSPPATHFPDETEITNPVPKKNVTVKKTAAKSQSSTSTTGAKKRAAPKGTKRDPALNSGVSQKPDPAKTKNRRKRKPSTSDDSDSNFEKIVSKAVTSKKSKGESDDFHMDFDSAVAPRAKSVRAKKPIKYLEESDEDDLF
structure (smiles),measurement,setting,value
CN(C)CCN1C(=O)c2cccc3cc(NC(=O)CCCc4ccc(N(CCCl)CCCl)cc4)cc(c23)C1=O.O=C(O)C(F)(F)F,Activity,WM 266-4 [1],5.47%
same,Activity,Mus musculus [2],Non-Toxic
same,GI50,MDA-MB-231,3.1 µM
same,Activity,WM 266-4 [3],84.5%
same,Activity,WM 266-4 [4],Active
same,TGI,WM 266-4 [5],Active
same,inhibition in vivo at 25 mg/kg,WM 266-4 [6],46%
same,Activity,WM 266-4 [7],3.9%
same,Activity,WM 266-4 [8],38%
same,inhibition in vivo at 10 mg/kg,WM 266-4 [9],40%
same,Activity,WM 266-4 [10],9.33%
same,Activity,WM 266-4 [11],18.8%
same,Activity,WM 266-4 [12],72.9%
same,inhibition of growth at 5 µM,WM 266-4 [13],100%
same,GI50,PC-3,7.1 µM
same,Activity,WM 266-4 [14],36%
same,Activity,WM 266-4 [15],21.4%
same,Activity,WM 266-4 [16],Active
same,Activity,WM 266-4 [17],5.46%
same,Activity,WM 266-4 [18],46%
same,Activity,WM 266-4 [19],6.58%
same,Activity,WM 266-4 [20],24%
same,Activity,WM 266-4 [21],15%
same,Activity,Mus musculus [22],Non-Toxic
same,Activity,WM 266-4 [23],45%
same,Activity,WM 266-4 [24],24%
same,Activity,WM 266-4 [25],35%
same,Activity,WM 266-4 [26],19.8%
same,survival at 10 mg/kg,WM 266-4 [27],60%
same,Drug metabolism,[28],Metabolite_Notdetected
same,Activity,WM 266-4 [29],3.94%
same,Activity,WM 266-4 [30],39%
same,Drug metabolism,[31],Metabolite_Notdetected
same,inhibition,[32],Active
same,Activity,WM 266-4 [33],10.3%
